Drawing on US20030162777A1, “Novel N-acylated heterocycles” (Recordati S.A., priority 2001, published 2003), this text covers Ki for 30 molecules.

The target in this test is T1, human 5HT1A-serotonergic receptor (Homo sapiens, UniProt P08908).
T1 construct: expressed in transfected cells; host or cells: HeLa (human cell line), stably transfected; cell membranes used
T1 sequence (P08908 1-422): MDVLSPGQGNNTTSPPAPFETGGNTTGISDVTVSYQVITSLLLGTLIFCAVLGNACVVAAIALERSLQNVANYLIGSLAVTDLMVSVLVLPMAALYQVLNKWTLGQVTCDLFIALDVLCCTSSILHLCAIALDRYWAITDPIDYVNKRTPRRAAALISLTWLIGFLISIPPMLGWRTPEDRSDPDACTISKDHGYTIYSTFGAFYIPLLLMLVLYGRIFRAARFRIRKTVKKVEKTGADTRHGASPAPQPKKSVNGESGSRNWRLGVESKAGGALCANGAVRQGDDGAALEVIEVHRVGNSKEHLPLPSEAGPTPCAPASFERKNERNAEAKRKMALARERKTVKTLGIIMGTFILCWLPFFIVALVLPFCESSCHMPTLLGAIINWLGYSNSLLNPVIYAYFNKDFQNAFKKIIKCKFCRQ
Kind of test: Radioligand binding to recombinant 5-HT1A receptors. The settings on record: [3H]8-OH-DPAT 1 nM, membranes of HeLa cells with human 5-HT1A receptor; Ki from IC50 by Cheng & Prusoff; read-out: Binding affinity for 5HT1A receptors, Ki. The procedure, abridged: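 Membranes from HeLa cells stably expressing human 5-HT1A incubated 30 min at 30 °C with 1 nM [3H]8-OH-DPAT and compound in 50 mM Tris-HCl pH 7.4, 2.5 mM MgCl2, […] pargyline. Nonspecific binding defined with 10 μM 5-HT; filtration readout, IC50 converted to Ki via Cheng–Prusoff.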

With `CN(CC(=O)N1c2ccccc2CCC1CN1CCN(c2cccc3[nH]ccc23)CC1)C(=O)c1ccccc1` (stereo not drawn) [Example 68A46, 1-[1-[2-(N-Benzoyl-N-methylamino)acetyl]-1,2,3,4-tetrahydroquinoline-2-ylmethyl]-4-(4-indolyl)piperazine], the Ki – broadly, the dissociation constant of the complex between target and ligand, obtained from inhibition or displacement – came out at 34.9 nM.

For `Cn1cc(C(=O)N2c3ccccc3CCC2CN2CCN(c3cccc4[nH]ccc34)CC2)c2ccccc21` (stereo not drawn) [Example 68A47, 1-(4-Indolyl)-4-[1-(1-methyl-3-indolylcarbonyl)-1,2,3,4-tetrahydroquinoline-2-ylmethyl]piperazine], the Ki was 17.1 nM.

With `O=C(Cc1ccc2c(c1)OCO2)N1c2ccccc2CCC1CN1CCN(c2cccc3[nH]ccc23)CC1` (stereo not drawn) [Example 68A49, 1-[1-[2-(5-Benzo[1,3]dioxolyl)acetyl]-1,2,3,4-tetrahydroquinoline-2-ylmethyl]-4-(4-indolyl)piperazine], the Ki is 18.7 nM.

In the case of `O=C(COc1ccccc1Cl)N1c2ccccc2CCC1CN1CCN(c2cccc3[nH]ccc23)CC1` (stereo not drawn) [Example 68A50, 1-[1-[2-(2-Chlorophenoxy)acetyl]-1,2,3,4-tetrahydroquinoline-2-ylmethyl]-4-(4-indolyl)piperazine], the Ki was found to be 27.3 nM.

Regarding `O=C(COc1ccc(Cl)cc1)N1c2ccccc2CCC1CN1CCN(c2cccc3[nH]ccc23)CC1` (stereo not drawn) [Example 68A51, 1-[1-[2-(4-Chlorophenoxy)acetyl]-1,2,3,4-tetrahydroquinoline-2-ylmethyl]-4-(4-indolyl)piperazine], the Ki stood at 15.6 nM.

In the case of `O=C(c1ccc(N2CCOCC2)nc1)N1c2ccccc2CCC1CN1CCN(c2cccc3[nH]ccc23)CC1` (stereo not drawn) [Example 68A52, 1-(4-Indolyl)-4-[1-[2-(4-morpholinyl)pyridine-5-carbonyl]-1,2,3,4-tetrahydroquinoline-2-ylmethyl]piperazine], the inhibition constant (Ki) was determined as 18.3 nM.

For the molecule `O=C1CCC(CC(=O)N2c3ccccc3CCC2CN2CCN(c3cccc4[nH]ccc34)CC2)N1` (stereo not drawn) [Example 68A54, 1-(4-Indolyl)-4-[1-[2-(5-oxopyrrolidin-2yl)acetyl]-1,2,3,4-tetrahydroquinoline-2-ylmethyl]piperazine], the Ki came to 41.4 nM.

`Cc1oc(S(=O)(=O)N2CCCCC2)cc1C(=O)N1c2ccccc2CCC1CN1CCN(c2cccc3[nH]ccc23)CC1` (stereo not drawn) [Example 68A55, 1-(4-Indolyl)-4-[1-(2-methyl-5-piperidin-1-ylsulfonylfuran-3-carbonyl)-1,2,3,4-tetrahydroquinoline-2-ylmethyl]piperazine]: the inhibition constant (Ki) was 14.3 nM.

With `Cc1oc(S(=O)(=O)N2CCOCC2)cc1C(=O)N1c2ccccc2CCC1CN1CCN(c2cccc3[nH]ccc23)CC1` (stereo not drawn) [Example 68A56, 1-(4-Indolyl)-4-[1-(2-methyl-5-morpholin-4-ylsulfonylfuran-3-carbonyl)-1,2,3,4-tetrahydroquinoline-2-ylmethyl]piperazine], the inhibition constant (Ki) came out at 26.8 nM.

With `Cc1ccc(S(=O)(=O)n2ccc(C(=O)N3c4ccccc4CCC3CN3CCN(c4cccc5[nH]ccc45)CC3)c2)cc1` (stereo not drawn) [Example 68A57, 1-(4-Indolyl)-4-[1-[1-(4-methylphenylsulphonyl)pyrrole-3-carbonyl]-1,2,3,4-tetrahydroquinoline-2-ylmethyl]piperazine], the inhibition constant Ki was 33 nM.

Turning to `Cc1oc(S(=O)(=O)N2CCCC2)cc1C(=O)N1c2ccccc2CCC1CN1CCN(c2cccc3[nH]ccc23)CC1` (stereo not drawn) [Example 68A59, 1-(4-Indolyl)-4-[1-(2-methyl-5-pyrrolidin-1-ylsulfonylfuran-3-carbonyl)-1,2,3,4-tetrahydroquinoline-2-ylmethyl]piperazine], the Ki was determined as 46.5 nM.

Consider `O=C(CCOc1ccccc1)N1c2ccccc2CCC1CN1CCN(c2cccc3[nH]ccc23)CC1` (stereo not drawn) [Example 68A61, 1-(4-Indolyl)-4-[1-(3-phenoxypropionyl)-1,2,3,4-tetrahydroquinoline-2-ylmethyl]piperazine], for which the Ki amounted to 19.7 nM.

Take `O=C(Cc1ccccc1F)N1c2ccccc2CCC1CN1CCN(c2cccc3[nH]ccc23)CC1` (stereo not drawn) [Example 68A63, 1-(4-Indolyl)-4-[1-[2-(2-fluorophenylacetyl)]-1,2,3,4-tetrahydroquinoline-2-ylmethyl]piperazine]: the inhibition constant Ki turned out to be 8.7 nM.

On to `O=C(Cc1ccccc1C(F)(F)F)N1c2ccccc2CCC1CN1CCN(c2cccc3[nH]ccc23)CC1` (stereo not drawn) [Example 68A64, 1-(4-Indolyl)-4-[1-[2-(2-trifluoromethylphenylacetyl)]-1,2,3,4-tetrahydroquinoline-2-ylmethyl]piperazine], for which the Ki was found to be 13.4 nM.

As for `O=C(CCCc1ccccc1)N1c2ccccc2CCC1CN1CCN(c2cccc3[nH]ccc23)CC1` (stereo not drawn) [Example 68A66, 1-(4-Indolyl)-1-[1-(4-phenylbutanoyl)-1,2,3,4-tetrahydroquinoline-2-ylmethyl]piperazine], the Ki was 19.6 nM.

On to `COc1cccc(C(=O)N2c3ccccc3CCC2CN2CCN(c3cccc4[nH]ccc34)CC2)c1` (stereo not drawn) [Example 68A67, 1-(4-Indolyl)-4-[1-(3-methoxybenzoyl)-1,2,3,4-tetrahydroquinoline-2-ylmethyl]piperazine], for which the Ki is 9.1 nM.

As to `O=C(c1ccc(O)cc1)N1c2ccccc2CCC1CN1CCN(c2cccc3[nH]ccc23)CC1` (stereo not drawn) [Example 68A68, 1-[1-(4-Hydroxybenzoyl)-1,2,3,4-tetrahydroquinoline-2-ylmethyl]-4-(4-indolyl)piperazine], the Ki stood at 7.5 nM.

In the case of `CCOc1ccc(C(=O)N2c3ccccc3CCC2CN2CCN(c3cccc4[nH]ccc34)CC2)cc1` (stereo not drawn) [Example 68A69, 1-[1-(4-Ethoxybenzoyl)-1,2,3,4-tetrahydroquinoline-2-ylmethyl]-4-(4-indolyl)piperazine], the Ki was 4.2 nM.

For `Cc1ccc(C(=O)N2c3ccccc3CCC2CN2CCN(c3cccc4[nH]ccc34)CC2)cc1` (stereo not drawn) [Example 68A70, 1-(4-Indolyl)-4-[1-(4-methylbenzoyl)-1,2,3,4-tetrahydroquinoline-2-ylmethyl]piperazine], the Ki turned out to be 5.3 nM.

In the case of `CS(=O)(=O)N(CC(=O)N1c2ccccc2CCC1CN1CCN(c2cccc3[nH]ccc23)CC1)Cc1ccccc1` (stereo not drawn) [Example 68A71, 1-[1-[2-(N-Benzyl-N-methanesulphonylamino)acetyl]-1,2,3,4-tetrahydroquinoline-2-ylmethyl]-4-(4-indolyl)piperazine], the Ki is 23.5 nM.

Regarding `O=C1CC[C@H](C(=O)N2c3ccccc3CCC2CN2CCN(c3cccc4[nH]ccc34)CC2)N1` (stereo partly drawn) [Example 68A73, 1-(4-Indolyl)-4-[1-[(2R)-5-oxopyrrolidine-2-ylcarbonyl]-1,2,3,4-tetrahydroquinoline-2-ylmethyl]piperazine], the Ki stood at 17.9 nM.

With `O=C(c1ccc[nH]1)N1c2ccccc2CCC1CN1CCN(c2cccc3[nH]ccc23)CC1` (stereo not drawn) [Example 68A, 1-(4-Indolyl)-4-[1-(2-pyrrolylcarbonyl)-1,2,3,4-tetrahydroquinoline-2-ylmethyl]piperazine], the Ki stood at 9.2 nM.

With `Cc1cccc(NC(=O)N2c3ccccc3CCC2CN2CCN(c3cccc4[nH]ccc34)CC2)c1` (stereo not drawn) [Example 69A1, 1-(4-Indolyl)-4-[1-(3-methylphenylaminocarbonyl)-1,2,3,4-tetrahydroquinoline-2-ylmethyl]piperazine], the Ki turned out to be 17.5 nM.

Regarding `O=C(Nc1ccc(F)cc1)N1c2ccccc2CCC1CN1CCN(c2cccc3[nH]ccc23)CC1` (stereo not drawn) [Example 69A2, 1-[1-(4-Fluorophenylaminocarbonyl)-1,2,3,4-tetrahydroquinoline-2-ylmethyl)-4-(4-indolyl)piperazine], the Ki worked out at 24 nM.

Regarding `Cc1ccc(NC(=O)N2c3ccccc3CCC2CN2CCN(c3cccc4[nH]ccc34)CC2)cc1` (stereo not drawn) [Example 69A3, 1-(4-Indolyl)-4-[1-(4-methylphenylaminocarbonyl)-1,2,3,4-tetrahydroquinoline-2-ylmethyl]piperazine], the Ki worked out at 9.3 nM.

Regarding `CC(C)NC(=O)N1c2ccccc2CCC1CN1CCN(c2cccc3[nH]ccc23)CC1` (stereo not drawn) [Example 69A7, 1-(4-Indolyl)-4-[1-(1-methylethylaminocarbonyl)-1,2,3,4-tetrahydroquinoline-2-ylmethyl]piperazine], the Ki is 36 nM.

On to `CNC(=S)N1c2ccccc2CCC1CN1CCN(c2cccc3[nH]ccc23)CC1` (stereo not drawn) [Example 69A8, 1-(4-Indolyl)-4-[1-methylaminothiocarbonyl-1,2,3,4-tetrahydroquinoline-2-ylmethyl)piperazine], for which the inhibition constant (Ki) is 39.5 nM.

Regarding `O=C(NCc1ccccc1)N1c2ccccc2CCC1CN1CCN(c2cccc3[nH]ccc23)CC1` (stereo not drawn) [Example 69A9, 1-(1-Benzylaminocarbonyl-1,2,3,4-tetrahydroquinoline-2-ylmethyl)-4-(4-indolyl)piperazine], the Ki is 25.5 nM.

Turning to `O=C(NCCc1ccccc1)N1c2ccccc2CCC1CN1CCN(c2cccc3[nH]ccc23)CC1` (stereo not drawn) [Example 69A10, 1(4-Indolyl)-4-[1-(2-phenylethylaminocarbonyl)-1,2,3,4-tetrahydroquinoline-2-ylmethyl]piperazine], the Ki was 13.5 nM.

On to `CCCCCNC(=O)N1c2ccccc2CCC1CN1CCN(c2cccc3[nH]ccc23)CC1` (stereo not drawn) [Example 69A11, 1-(4-Indolyl)-4-(1-pentylaminocarbonyl-1,2,3,4-tetrahydroquinoline-2-ylmethyl]piperazine], for which the Ki was determined as 10.4 nM.
